Structures can show the parent of a compound that is named as a salt.
Key:
[1] = test system: L6-myotubes; test: Measurement of intracellular cAMP levels (alpha screen cAMP kit) in differentiated cells, compared to isoproterenol; type: cell-based; details: 0.25 h, compound at 10 μM vs isoproterenol at 10 μM, 15 min stimulation, read-out: Biological example 2: intracellular cAMP level activity compared to that of isoproterenol
Method in brief: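 Rat L6 myoblasts differentiated to myotubes over 7 days in 2% FBS, serum-starved overnight, then stimulated 15 min with agonist at 1×10^−5 M final in HBSS with 1 mM IBMX, pH 7.4. cAMP measured by AlphaScreen after ethanol extraction and lysis; activity expressed relative to isoproterenol.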

[2] = test system: L6-myotubes; test: Glucose uptake (3H-2-deoxyglucose) in differentiated L6-myotubes, compared to isoproterenol; type: cell-based; details: compound at 10 μM vs isoproterenol at 10 μM, read-out: Biological example 1: glucose uptake activity compared to that of isoproterenol
Method in brief: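 Differentiated L6 myotubes, serum-starved overnight in 0.5% fatty-acid-free BSA, were pretreated 1 h 40 min with agonist at 1×10^−5 M final, then re-dosed in glucose-free medium for 20 min. Uptake of 50 nM 3H-2-deoxyglucose over 10 min was read by scintillation counting and compared with isoproterenol.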

Structure (SMILES)	Emax at 10 µM [1] [%]	Emax at 10 µM [2] [%]
CC(C)(C[C@H]1CNC(=O)C1)NC[C@H](O)c1cncc(F)c1 [Example 78, (R)-4-(2-(((R)-2-(5-Fluoropyridin-3-yl)-2-hydroxyethyl)amino)-2-methylpropyl)pyrrolidin-2-one dihydrochloride]	< 25	> 75
CC(C)(CC1CCOCC1)NC[C@H](O)c1cccc(F)c1 [Example 80, (R)-1-(3-Fluorophenyl)-2-((2-methyl-1-(tetrahydro-2H-pyran-4-yl)-propan-2-yl)amino)ethan-1-ol]	< 25	> 75
CC(C)(C[C@H]1CCCCO1)NC[C@H](O)c1cccc(F)c1 [Example 81, (R)-1-(3-Fluorophenyl)-2-((2-methyl-1-((R)-tetrahydro-2H-pyran-2-yl)propan-2-yl)amino)ethan-1-ol]	25 to 50	> 75
CC(C)(C[C@@H]1CCCCO1)NC[C@H](O)c1cccc(F)c1 [Example 82, (R)-1-(3-Fluorophenyl)-2-((2-methyl-1-((S)-tetrahydro-2H-pyran-2-yl)propan-2-yl)amino)ethan-1-ol]	< 25	> 75
CC(C)(C[C@H]1CCCOC1)NC[C@H](O)c1cccc(F)c1 [Example 83, (R)-1-(3-Fluorophenyl)-2-((2-methyl-1-((R)-tetrahydro-2H-pyran-3-yl)propan-2-yl)amino)ethan-1-ol]	< 25	> 75
CC(C)(C[C@@H]1CCCOC1)NC[C@H](O)c1cccc(F)c1 [Example 84, (R)-1-(3-Fluorophenyl)-2-((2-methyl-1-((S)-tetrahydro-2H-pyran-3-yl)propan-2-yl)amino)ethan-1-ol]	50 to 75	> 75
COC1CCN(CC(C)(C)NC[C@H](O)c2cccc(F)c2)CC1 [Example 85, (R)-1-(3-Fluorophenyl)-2-((1-(4-methoxypiperidin-1-yl)-2-methyl-propan-2-yl)amino)ethan-1-ol dihydrochloride]	< 25	> 75
CC(=O)N1CCN(CC(C)(C)NC[C@H](O)c2cccc(F)c2)CC1 [Example 86, (R)-1-(4-(2-((2-(3-Fluorophenyl)-2-hydroxyethyl)amino)-2-methyl-propyl)piperazin-1-yl)ethan-1-one dihydrochloride]	< 25	> 75

— patent publication US20260242335A1, “HETEROCYCLOALKYL BETA-HYDROXY ALKYL AMINES FOR USE IN THE TREATMENT OF HYPERGLYCAEMIA AND DISORDERS CHARACTERISED BY HYPERGLYCAEMIA” (ATROGI AB, priority 2023, published 2026)
